Columns and labels:
Vero cells = settings: 25 mg/ml, 48 hours
Description: To determine the toxicity level of the drug, all three cell lines--RK-13, Vero cells, and WISH cells--were used. In the toxicity experiments, the effect of the drug on the uninfected cell for a range of periods of time was determined. Accordingly, cultures were incubated with and without the drug. The time of exposure was from one to seven hours. A comparison was then made between the drug tested cultures and the control cultures. After each period of incubation, the cells were washed and fresh media was added to the cells. The cell viability was then determined by dividing these cultures and having them grow into new cell cultures.
At the end of the incubation period, the cultures were washed twice with sterile PBS (Dulbecco). Fresh medium was added to each of the cultures. The cultures were then incubated for an additional 24 hours.
(§1) Healthy confluent monolayer cell cultures were overlaid with 1 ml of the drug and incubated for 48 hours at 37° C. and then stained. Cell cultures with maintenance media were used as controls.

[1] = test system: Flow 1000 cells (foreskin cells); settings: 25 mg/ml, 48 hours
Description: as §1

HSV-2 (333 strain) = test: HMB plaque inhibition in infected Vero cells (Exp. 1M-1P); format: cell-based
Description: In this experiment, 25 mg/ml HMB was tested on Vero cells infected with HSV-2. The virus control cultures, without HMB, had 705 plaque.
The number of plaque on the virus control was about 10 to 12 plaque.
In this experiment, 25 mg/ml, 20 mg/ml, and 15 mg/ml of HMB concentrations were tested on Vero cells infected with HSV-2. […] The experimental flasks had as many, or more, plaque as the control, with an average of 154 plaque for the control and 169 plaque for the HMB-treated flasks.

RK-13 cells = settings: 25 mg/ml, 48 hours

For `C[N+](C)(C)CCCCCC[N+](C)(C)C` [HMB, hexamethonium bromide], the toxicity (Vero cells) was “no toxicity”, the toxicity [1] was “no toxicity” and the cell layer appearance (HSV-2 (333 strain); Exp. 1M, 25 mg/ml) was “thin cell layer”. For the same compound, the plaque inhibition (HSV-2 (333 strain); Exp. 1N, 20 mg/ml, control about 10 to 12) was “complete inhibition of plaque”, the effect on plaque (HSV-2 (333 strain); Exp. 1O, 15 mg/ml) was “did not have any effect” and the average plaque number (HSV-2 (333 strain); Exp. 1O, 15 mg/ml, control 154) was 169 plaque. The plaque formation (HSV-2 (333 strain); Exp. 1O, 20 mg/ml) was “no plaque”, the toxicity to monolayer (HSV-2 (333 strain); Exp. 1O, 25 mg/ml) was “toxic to the monolayer” and the plaque formation (HSV-2 (333 strain); Exp. 1O, 25 mg/ml, most likely due to toxicity) was “no plaque”. For the same compound, the “inhibition of in vitro replication” value (HSV-2 (333 strain); HMB, Example No. 1 summary) was “inhibit the in vitro replication of HSV-1 and HSV-2” and the toxicity (RK-13 cells) was “slight toxicity”.

From US5686448A (priority 1995, dated 1997)
